Experimental data reported in patent US20070270337A1, “Pharmaceutical Compositions for Preventing or Treating Th1-Mediated Immune Diseases” (Daiichi Asubio Pharma Co., Ltd., priority 2003, published 2007).

Assays:
[1] = test system: immature dendritic cells; assay: cGMP producing activity in immature dendritic cells; assay type: cell-based, human; details: 10^-12 to 10^-6 M, 15 minutes
Procedure: (§1) For experiments, the leukocyte layer (buffy coats) of peripheral blood from healthy volunteers (provided by Kyoto Red Cross Blood Center, Japan) was used. After the peripheral blood monocyte fraction was separated by density gradient centrifugation using Ficoll-Paque, the fraction was applied to a magnetic bead column using MACS CD14 or cultured in cell culture flasks at 37° C. for 1 hour to select the adhered cells, thereby separating monocytes. Immature dendritic cells were obtained by culturing the monocytes (2×10^5 cells/ml) for 7 days at 37° C. in the presence of 10% fetal bovine serum, 50 ng/mL human GM-CSF and 20 ng/mL human IL-4.
(§2) After the cells (1×10^5 cells/sample) were incubated in 500 μL of 10 mM HEPES, 0.5 mM 3-isobutyl-1-methylxanthine and 1 μM phospholamidon at 37° C. for 10 minutes, ANP or CNP was added to a final concentration of 10^−12 to 10^−6 M and incubation was continued for an additional 15 minutes. After the cells were washed and lysed, the intracellular cGMP concentration was measured by the ELISA method.

[2] = test system: human monocytes; assay: cGMP producing activity in monocytes; assay type: cell-based; details: 10^-12 to 10^-6 M, 15 minutes
Procedure: as §1, §2

[3] = test system: naive CD4+ T cells cultured with dendritic cells; assay: T cell proliferation induced by activated dendritic cells ([3H]-thymidine uptake); assay type: cell-based, human
Procedure: as §1
Naive T cells (naive CD4^+ T cells) were isolated from the monocyte fraction of umbilical cord blood using magnetic beads for MACS CD4^+ T cell isolation. Dendritic cells were activated by being cultured for 24 hours with lipopolysaccharide (LPS, 1 μg/mL) in the presence or absence of ANP (10^−7 M). The cells were washed and irradiated (30 Gy) to eliminate their proliferation ability, followed by culturing together with the naive T cells (1×10^5 cells/well) for 6 days. The T cells were evaluated for their proliferation ability by 8 hour uptake of [methyl-^3H]-thymidine (0.5 μCi/well).

[4] = test system: dendritic cells; assay: Cytokine production from dendritic cells (ELISA); assay type: cell-based, human; details: for IL-10 production from dendritic cells / IL-12 production from dendritic cells / TNFα production from dendritic cells: LPS (1 μg/mL) stimulated, 24 hours, ANP 10^-8 to 10^-6 M, CNP 10^-6 M
Procedure: as §1
Dendritic cells were incubated for 24 hours with LPS (1 μg/mL) in the presence or absence of ANP (10^−8 M to 10^−6 M) or CNP (10^−6 M), and the levels of IL-12, IL-10 and TNFα in each culture supernatant were measured by the ELISA method.

[5] = test system: naive T cells co-cultured with dendritic cells; assay: Intracellular cytokine expression in naive T cells (dendritic cell-driven Th1/Th2 polarization, flow cytometry); assay type: cell-based, human; details: dendritic cells pretreated with LPS (1 μg/mL) + ANP (10^-7 M) versus LPS alone; Sample #1 and #2
Procedure: as §1
Dendritic cells were activated by being pre-incubated for 24 hours with LPS (1 μg/mL) in the presence or absence of ANP (10^−7 M) and then irradiated (30 Gy) to eliminate their proliferation ability. These dendritic cells (1×10^5 cells/well) and naive T cells separated from cord blood (1×10^6 cells/well) were co-cultured for 6 days. After the T cells were grown in the presence of IL-2 (50 U/mL) for an additional 8 days, the T cells were collected and stimulated for 4 hours with 50 ng/mL phorbol ester (PMA) and 500 ng/mL ionomycin. Two hours before completion of the incubation, Brefeldin A (10 μg/mL) was added. […] IFN-γ positive cells were determined as Th1-type cells, while IL-4 positive cells were determined as Th2-type cells.

| Compound | intracellular cGMP levels [1] | intracellular cGMP levels [2] | T cell proliferation induced by LPS-treated dendritic cells ([3]; ANP (10^-7 M) added simultaneously with LPS (1 μg/mL)) | proliferation of naive T cells ([3]; dendritic cells treated with ANP (10^-7 M) alone, without LPS) | IL-10 production from dendritic cells [4] | IL-12 production from dendritic cells [4] | TNFα production from dendritic cells [4] | IL-12, TNF-α and IL-10 production from dendritic cells ([4]; LPS-unstimulated dendritic cells, ANP alone) | IFN-γ-producing cells (Th1-type) [5] | IL-4-producing cells (Th2-type) [5] |
| --- | --- | --- | --- | --- | --- | --- | --- | --- | --- | --- |
| CC[C@H](C)[C@@H]1NC(=O)[C@H](CCCNC(=N)N)NC(=O)[C@H](CC(=O)O)NC(=O)[C@H](CCSC)NC(=O)[C@H](CCCNC(=N)N)NC(=O)CNC(=O)CNC(=O)[C@H](Cc2ccccc2)NC(=O)[C@@H](NC(=O)[C@H](CO)NC(=O)[C@H](CO)NC(=O)[C@H](CCCNC(=N)N)NC(=O)[C@H](CCCNC(=N)N)NC(=O)[C@H](CC(C)C)NC(=O)[C@@H](N)CO)CSSC[C@@H](C(=O)N[C@@H](CC(N)=O)C(=O)N[C@@H](CO)C(=O)N[C@@H](Cc2ccccc2)C(=O)N[C@@H](CCCNC(=N)N)C(=O)N[C@@H](Cc2ccc(O)cc2)C(=O)O)NC(=O)CNC(=O)[C@H](CC(C)C)NC(=O)CNC(=O)[C@H](CO)NC(=O)[C@H](CCC(N)=O)NC(=O)[C@H](C)NC(=O)CNC1=O [ANP, atrial natriuretic peptide] | increase intracellular cGMP levels in dendritic cells in a concentration-dependent manner from a concentration as low as 10^−12 M | little increase in cGMP levels at all concentrations | almost completely inhibited | no effect on proliferation of naive T cells | enhance IL-10 production | decrease both IL-12 and TNFα levels in a concentration-dependent manner | decrease both IL-12 and TNFα levels in a concentration-dependent manner | no effect on these cytokine productions | decrease in IFN-γ-producing cells | increase in IL-4-producing cells |
| C-type natriuretic peptide [CNP, reference compound] | no effect on intracellular cGMP levels | no effect on intracellular cGMP levels |  |  | no effect on cytokine expression | no effect on cytokine expression | no effect on cytokine expression |  |  |  |
